Experimental data reported in patent publication US6555548B2, “Compounds for treating fibromyalgia and chronic fatigue syndrome” (Pharmacia & Upjohn Company, priority 2000, dated 2003).

CN[C@@H]1Cc2cccc3[nH]c(=S)n(c23)C1
melting point: 210 to 213 °C

CN[C@@H]1Cc2cccc3[nH]c(=S)n(c23)C1.O=C(O)/C=C\C(=O)O
melting point: 195 to 196 °C
